The results in this text go back to US8952192B2, “Phosphorylated and branched dihydroxy-pentane-dione (DPD) analogs as quorum sensing inhibitors in bacteria” (University of Maryland, College Park, priority 2011, dated 2015).

One assay relates to P. aeruginosa PAO1. Kind of assay: Tri-species synthetic ecosystem (E. coli, S. typhimurium, P. aeruginosa): pyocyanin production. The class given is cell-based. To be noted: tri-species culture, 40 μM analog, no exogenous AI-2, 24 h. The procedure:
Effect of analogs in a tri-species synthetic ecosystem. […] Isobutyl-DPD (40 μM) and phenyl-DPD (40 μM) were added to a tri-species synthetic ecosystem created by culturing E. coli, S. typhimurium and P. aeruginosa in the same tubes. In order to differentiate and monitor the QS response from each organism, different and orthogonal reporter strains were used; in E. coli, AI-2 mediated dsRED expression, in S. typhimurium, AI-2 mediated β-galactosidase production; and in P. aeruginosa effects of AI-2 were examined for pyocyanin production.
S. typhimurium MET708, P. aeruginosa PAO1 and E. coli W3110 pCT6 dsRED were each cultured separately overnight in LB medium supplemented with the appropriate antibiotic. P. aeruginosa PAO1, S. typhimurium MET708 and E. coli W3110 pCT6 dsRED were diluted (25 μL:2.5 μL:100 μL) of the overnight culture respectively, into a single 2 mL final volume of fresh LB medium without antibiotics. […] The S. typhimurium lacZ (β-galactosidase) activity was measured after 4 h. The E. coli response was determined after 24 h, by fixing the cells with 1:1 cold 4% paraformaldehyde and using flow cytometric analysis. Samples were analyzed by flow cytometry (FACS Canto II, BD 394 Biosciences), with 30,000 gated events analyzed per sample. […]

The subject of assay [1] is pre-formed E. coli biofilms (K-12 MG1655). Kind of assay: Effects on pre-formed E. coli biofilms (microfluidic flow cell, COMSTAT, optical density). The assay is classed as cell-based. As for the experimental part:
The E. coli biofilms were formed using the strain K-12 MG1655 ATCC(47076). P. aeruginosa biofilms were formed using wild type strain PAO1. For both strains, overnight cultures were diluted to an OD600 of 0.25, introduced into the microfluidic channel, and incubated with no flow at 37° C. for 2 h. LB (Luria Bertani) growth medium was then continuously flowed into the device at a rate of 10 μL/hr. As needed, this medium was supplemented with various concentrations of analog or antibiotic at specified times. In studies of biofilm inhibition, after 2 hours of cell incubation, the analog diluted in LB medium is flown into the microfluidic channel for 48 hours at 10 μL/hr. In studies of effects on pre-formed biofilms, LB is introduced over the cells at 10 μL/hr for a period of 36 to 48 hours to yield stable biofilms. Then, the analog or analog-antibiotic combination was introduced for an additional 36 to 48 hours.
Biofilms were stained in situ for microscopy. They were first treated with a Live/Dead bacterial labeling kit (Invitrogen #L7012) in which two labeling components were mixed in a 1:1 ratio to a final volume of 10 μL. The dye was introduced into the channel at 10 μL/hr, the same flow rate as during biofilm growth. This treatment was then followed by 10 μL/hr of a 100 μg/mL calcofluor (Fluorescence Brightener 28, Sigma #F3543) solution for labeling polysaccharides contained in the biofilm matrix. The dyes are fixed by flowing in 3% paraformaldehyde at the same flow rate.
Labeled samples are imaged using a confocal microscope (Zeiss LSM710). For unpatterned coverslips, Z-stacks were obtained at 7 points in each microfluidic channel, each stack was comprised of 150 slices. For patterned coverslips used while measuring the optical density of the biofilms, two stacks were obtained in each channel (i.e. one at each pinhole). The image stacks were analyzed using COMSTAT, which provides morphological characteristics. Average biofilm thickness and biomass were averaged over the image stacks obtained at each of these 7 data points in the microfluidic channel. Additionally, surface reconstructions of the biofilms were created using Imaris (Bitplane) to aid in visualization of the resulting structures.
The data corresponding to the change in optical density of the biofilms were obtained from the photodiodes using the standard methodologies. Data for each channel (the average of the response of the two photodiodes) was normalized with respect to the optical density at 48 hours; this method reflects that as of 48 hours, the biofilms have been grown under identical conditions although their optical density values may not be identical. Additionally, since the optical density data itself fluctuates as the biofilm grows, the data for each curve was fitted using a Churchill model (Churchill et al, 1972), represented by log N=[f1^−1+f2^−1]^−1 (1)

[2] abbreviates: 100 μM isobutyl-DPD combined with gentamicin 5 μg/ml.

As to `O=C(C(=O)C(O)CO)c1ccccc1` (stereo not drawn) [Phenyl-DPD, Phenyl DPD], in the assay on P. aeruginosa PAO1, the “QS inhibition in P. aeruginosa (pyocyanin production)” value is “retained some activity”.
For `CC(C)CC(=O)C(=O)[C@@H](O)CO` [Isobutyl-DPD, isobutyl-DPD], the average biofilm thickness in assay [1] (40 μM isobutyl-DPD combined with gentamicin 5 μg/ml) is listed as 6 μm. Further, in assay [1] (setting [2]), the average biofilm thickness is recorded as 2 μm; the “effect on biofilm biomass, in words” value is given as “nearly complete removal of biomass”; the “reduction in biofilm thickness” value is “more than 80%”. In addition, the “course of biofilm optical density after 48 h, in words” value in assay [1] (isobutyl-DPD combined with gentamicin, continuous optical density measurement) is recorded as “reversed biofilm growth”.
